The supplement of paper PMC10307832

Columns and labels:
Assay in all cases: relative viability (nuclei count vs DMSO), 5 days (fraction); higher = more cells survive
[1] = compound: COc1cc2ncn(-c3cc(OCc4ccccc4C(F)(F)F)c(C(N)=O)s3)c2cc1OC + CS(=O)(=O)N1CCN(Cc2cc3nc(-c4cccc5[nH]ncc45)nc(N4CCOCC4)c3s2)CC1 [Pictilisib] (partner 1 µM)
Method in brief: (§1)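 The day after seeding in 1536-well plates, lung cancer cell lines were treated by pin tool with a single drug, or with a fixed anchor-drug dose together with five library-drug doses (not always all listed) in √10 steps. After 5 days, a combined fix-and-stain solution (final 0.05% Triton X-100, 1% formaldehyde, 1 ug/ml Hoechst) was added. Nuclei counted on 4× images gave relative viability as treated counts over vehicle counts, reported as the median of duplicate plates.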

[2] = compound: COc1cc2ncn(-c3cc(OCc4ccccc4C(F)(F)F)c(C(N)=O)s3)c2cc1OC + CC(C)C[C@H](NC(=O)[C@H](Cc1ccccc1)NC(=O)c1cnccn1)B(O)O [Bortezomib] (partner 0.002 µM)
Method in brief: as §1

[3] = compound: COc1cc2ncn(-c3cc(OCc4ccccc4C(F)(F)F)c(C(N)=O)s3)c2cc1OC + COc1cc2c(Oc3ccc(NC(=O)C4(C(=O)Nc5ccc(F)cc5)CC4)cc3F)ccnc2cc1OCCCN1CCOCC1 [Foretinib] (partner 0.25 µM)
Method in brief: as §1

[4] = compound: COc1cc2ncn(-c3cc(OCc4ccccc4C(F)(F)F)c(C(N)=O)s3)c2cc1OC + CC(=O)c1c(C)c2cnc(Nc3ccc(N4CCNCC4)cn3)nc2n(C2CCCC2)c1=O [Palbociclib] (partner 0.5 µM)
Method in brief: as §1

| Cell Line | relative viability ([1]; first compound 0.05 µM) | relative viability ([1]; first compound 0.1581 µM) | relative viability ([1]; first compound 0.5 µM) | relative viability ([1]; first compound 1.581 µM) | relative viability ([1]; first compound 5 µM) | relative viability ([2]; first compound 0.05 µM) | relative viability ([2]; first compound 0.1581 µM) | relative viability ([2]; first compound 0.5 µM) | relative viability ([2]; first compound 1.581 µM) | relative viability ([2]; first compound 5 µM) | relative viability ([3]; first compound 0.05 µM) | relative viability ([3]; first compound 0.1581 µM) | relative viability ([3]; first compound 0.5 µM) | relative viability ([3]; first compound 1.581 µM) | relative viability ([3]; first compound 5 µM) | relative viability ([4]; first compound 0.05 µM) | relative viability ([4]; first compound 0.1581 µM) | relative viability ([4]; first compound 0.5 µM) | relative viability ([4]; first compound 1.581 µM) | relative viability ([4]; first compound 5 µM) |
| --- | --- | --- | --- | --- | --- | --- | --- | --- | --- | --- | --- | --- | --- | --- | --- | --- | --- | --- | --- | --- |
| NCI-H647 | 0.441 | 0.425 | 0.413 | 0.0779 | 0.057 | 1.2 | 0.814 | 0.324 | 0.0759 | 0.0904 | 1.1 | 1.17 | 0.444 | 0.195 | 0.0972 | 0.436 | 0.39 | 0.174 | 0.0732 | 0.077 |
| NCI-H650 | 0.959 | 0.781 | 0.642 | 0.224 | 0.396 | 0.89 | 0.78 | 0.512 | 0.163 | 0.214 | 0.995 | 1.08 | 0.779 | 0.348 | 0.637 | 0.301 | 0.335 | 0.279 | 0.188 | 0.34 |
| NCI-H661 | 0.486 | 0.328 | 0.458 | 0.259 | 0.257 | 0.818 | 0.819 | 0.485 | 0.217 | 0.257 | 0.908 | 0.866 | 0.854 | 0.322 | 0.27 | 0.441 | 0.428 | 0.335 | 0.248 | 0.241 |
| NCI-H727 | 0.392 | 0.373 | 0.403 | 0.245 | 0.188 | 1.05 | 0.835 | 0.583 | 0.317 | 0.381 | 0.929 | 0.941 | 0.639 | 0.309 | 0.476 | 0.701 | 0.716 | 0.608 | 0.547 | 0.628 |
| NCI-H838 | 0.514 | 0.519 | 0.478 | 0.14 | 0.0851 | 0.979 | 0.776 | 0.525 | 0.132 | 0.0869 | 1.17 | 1.09 | 0.832 | 0.455 | 0.139 | 0.255 | 0.231 | 0.161 | 0.111 | 0.0913 |
| NCI-H1355 | 0.499 | 0.399 | 0.385 | 0.182 | 0.151 | 1.15 | 1.15 | 0.95 | 0.232 | 0.164 | 0.935 | 0.888 | 0.642 | 0.218 | 0.139 | 0.271 | 0.423 | 0.345 | 0.186 | 0.152 |
| NCI-H1437 | 0.533 | 0.392 | 0.307 | 0.0976 | 0.0782 | 0.526 | 0.38 | 0.145 | 0.148 | 0.107 | 1.38 | 1.17 | 0.456 | 0.267 | 0.194 | 0.3 | 0.279 | 0.253 | 0.206 | 0.192 |
| NCI-H1650 | 0.52 | 0.615 | 0.322 | 0.156 | 0.146 | 0.222 | 0.184 | 0.185 | 0.175 | 0.172 | 1.04 | 1.01 | 1.08 | 0.13 | 0.139 | 0.295 | 0.329 | 0.234 | 0.146 | 0.141 |
| NCI-H1651 | 0.662 | 0.7 | 0.616 | 0.111 | 0.102 | 1.05 | 0.9 | 0.994 | 0.708 | 0.256 | 0.832 | 0.893 | 0.655 | 0.118 | 0.102 | 0.535 | 0.492 | 0.481 | 0.484 | 0.397 |
| NCI-H1666 | 0.404 | 0.38 | 0.332 | 0.188 | 0.193 | 0.899 | 0.801 | 0.489 | 0.28 | 0.299 | 0.927 | 0.832 | 0.507 | 0.393 | 0.354 | 0.631 | 0.637 | 0.597 | 0.414 | 0.445 |
| NCI-H1734 | 0.493 | 0.48 | 0.409 | 0.206 | 0.172 | 1.01 | 0.884 | 0.59 | 0.234 | 0.143 | 0.85 | 1.06 | 0.56 | 0.257 | 0.204 | 0.315 | 0.334 | 0.325 | 0.203 | 0.171 |
| NCI-H1755 | 0.457 | 0.371 | 0.355 | 0.203 | 0.169 | 0.958 | 0.965 | 0.843 | 0.355 | 0.278 | 0.583 | 0.896 | 0.635 | 0.362 | 0.315 | 0.452 | 0.442 | 0.429 | 0.316 | 0.328 |
| NCI-H1915 | 0.988 | 0.857 | 0.799 | 0.111 | 0.0806 | 1.04 | 0.925 | 0.853 | 0.107 | 0.0772 | 1.08 | 1.03 | 0.702 | 0.204 | 0.141 | 0.456 | 0.493 | 0.347 | 0.114 | 0.0905 |
| NCI-H1975 | 0.285 | 0.324 | 0.257 | 0.133 | 0.157 | 0.371 | 0.335 | 0.182 | 0.144 | 0.115 | 0.932 | 0.961 | 0.516 | 0.155 | 0.138 | 0.613 | 0.33 | 0.193 | 0.198 | 0.148 |
| NCI-H1993 |  | 0.812 | 0.73 | 0.553 | 0.588 | 1.09 | 1.13 | 0.874 | 0.618 | 0.516 | 0.652 | 0.884 | 0.662 | 0.579 | 0.569 | 0.512 | 0.67 | 0.561 | 0.513 | 0.431 |
| NCI-H2009 | 0.783 | 0.417 | 0.325 | 0.166 | 0.152 | 0.965 | 0.831 | 0.289 | 0.149 | 0.113 | 1.07 | 1.1 | 0.89 | 0.354 | 0.248 | 0.191 | 0.203 | 0.188 | 0.178 | 0.127 |
| NCI-H2023 | 0.228 | 0.287 | 0.196 | 0.12 | 0.0888 | 0.998 | 1.24 | 0.403 | 0.0876 | 0.0864 | 0.765 | 0.799 | 0.725 | 0.416 | 0.0871 | 0.397 | 0.41 | 0.265 | 0.0834 | 0.0792 |
| NCI-H2085 | 0.47 | 0.45 | 0.463 | 0.273 | 0.273 | 0.968 | 1.11 | 0.796 | 0.529 | 0.362 | 0.931 | 1 | 0.566 | 0.294 | 0.31 | 0.423 | 0.476 | 0.488 | 0.38 | 0.244 |
| NCI-H2087 | 1.11 | 0.556 | 0.454 | 0.211 | 0.134 | 0.768 | 0.782 | 0.484 | 0.167 | 0.131 | 1.16 | 1.21 | 0.261 | 0.117 | 0.128 | 0.232 | 0.185 | 0.24 | 0.0808 | 0.106 |
| NCI-H2126 | 0.462 | 0.517 | 0.477 | 0.254 | 0.229 | 1.16 | 1.16 | 1.03 | 0.398 | 0.314 | 1.21 | 1.26 | 0.672 | 0.365 | 0.318 | 0.373 | 0.31 | 0.348 | 0.273 | 0.265 |
| NCI-H2228 | 0.331 | 0.423 | 0.237 | 0.165 | 0.303 | 1.01 | 0.849 | 0.208 | 0.182 | 0.18 | 0.85 | 0.739 | 0.351 | 0.1 | 0.162 | 0.767 | 0.328 | 0.352 | 0.192 | 0.259 |
| NCI-H2347 | 0.689 | 0.435 | 0.503 | 0.394 | 0.375 | 1.1 | 0.861 | 0.543 | 0.372 | 0.479 | 0.966 | 0.916 | 0.98 | 0.651 | 0.428 | 0.373 | 0.413 | 0.397 | 0.377 | 0.375 |
| NCI-H2405 | 0.512 | 0.265 | 0.458 | 0.366 | 0.27 | 1.02 | 0.492 | 0.835 | 0.401 | 0.557 | 0.998 | 0.817 | 0.531 | 0.359 | 0.361 | 0.511 | 0.508 | 0.382 | 0.343 | 0.332 |
| NCI-H3122 | 0.578 | 0.269 | 0.282 | 0.212 | 0.184 | 1.05 | 0.951 | 0.709 | 0.183 | 0.227 | 0.976 | 0.93 | 0.241 | 0.123 | 0.148 | 0.189 | 0.202 | 0.148 | 0.14 | 0.13 |
| PC-3 [JPC-3] | 0.728 | 0.78 | 0.611 | 0.327 | 0.26 | 0.863 | 0.803 | 0.775 | 0.285 | 0.231 | 0.96 | 0.992 | 0.402 | 0.238 | 0.233 | 0.568 | 0.541 | 0.534 | 0.435 | 0.429 |
| PC-14 | 0.717 | 0.694 | 0.343 | 0.0295 | 0.0382 | 0.723 | 0.794 | 0.404 | 0.0771 | 0.0641 | 0.934 | 0.929 | 0.784 |  | 0.629 | 0.503 | 0.403 | 0.154 | 0.0334 | 0.0605 |
